Reference: US7504096B1, “Methods for in vitro fertilization” (The United States of America as represented by the …, priority 1999, dated 2009)

System: ovariectomized mice
Assay: Blastocyst implantation after embryo transfer in ovariectomized, steroid-primed mice (LIF as replacement for nidatory estrogen)
Assay type: in vivo
Conditions: for Nos. Implanted / Nos. Pregnant: E2 1 injection of 40 ng or LIF 3 injections of 5 μg 1 hour apart, analysis four days later
Description: Mice were ovariectomized and allowed to recover for 18 days before starting experimental manipulation. Priming of the uterus by steroid hormones was started by the injection of 100 ng of Estrogen on each of 3 consecutive days. On the 6th day the mice were given a single injection of Progesterone in the form of Depo-Provera. Three days later an average of 6 blastocysts, either directly isolated from females or from cultures started the previous day when the embryos were at the 8-cell stage were surgically transferred to the right uterine horn. After the mice had recovered from surgery they were either given 1 injection of 40 ng of estrogen or 3 injections, 1 hour apart, of 5 μg LIF. Four days later (equivalent to Day 7-8 of pregnancy) the mice were sacrificed for analysis, and the implantation sites recovered.

[1] = Blastocyst type at time of transfer: D4 cultured, E2 36 blastocysts (6 recipients), LIF 42 (7)
[2] = Blastocyst type at time of transfer: D4 direct, 36 blastocysts in 6 recipients

With “LIF: cytokine Leukemia Inhibitory Factor, recombinant, member of the IL-6 family of cytokines” the “Nos. Implanted” value [1] was 16, the “Nos. Pregnant” value [1] was 5 and the “Nos. Implanted” value [2] was 30. For the same substance, the “Nos. Pregnant” value [2] was 6 and the “Inducing embryo implantation in place of estrogen (result in words)” value (injection of LIF versus injection of estrogen, Table 1 protocol) was “can unequivocally replace the injection of estrogen for inducing embryo implantation”.
